Source: PMC10838953

Legend:
[1] = tested on: RPTEC (renal proximal tubule epithelial cells); settings: high concentrations
[2] = target: ABL1(E255K)-phosphorylated (Homo sapiens, UniProt P00519, E255K); test: biochemical; settings: read-out: %Ctrl @ 2000nM
[3] = target: ABL1(T315I)-phosphorylated (Homo sapiens, UniProt P00519, T315I); test: biochemical; settings: read-out: %Ctrl @ 2000nM
[4] = target: ACVR2B (Homo sapiens, UniProt Q13705); test: biochemical; settings: read-out: %Ctrl @ 2000nM
[5] = target: AMPK-alpha1 (Homo sapiens, UniProt Q13131); test: biochemical; settings: read-out: %Ctrl @ 2000nM
[6] = target: AXL (Homo sapiens, UniProt P30530); test: biochemical; settings: read-out: %Ctrl @ 2000nM
[7] = target: CAMK2D (Homo sapiens, UniProt Q13557); test: biochemical; settings: read-out: %Ctrl @ 2000nM
[8] = target: CDK4 (Homo sapiens, UniProt P11802); test: biochemical; settings: read-out: %Ctrl @ 2000nM
[9] = target: CDK7 (Homo sapiens, UniProt P50613); test: biochemical; settings: read-out: %Ctrl @ 2000nM
[10] = target: CLK3 (Homo sapiens, UniProt P49761); test: biochemical; settings: read-out: %Ctrl @ 2000nM
[11] = target: CLK4 (Homo sapiens, UniProt Q9HAZ1); test: biochemical; settings: read-out: %Ctrl @ 2000nM
[12] = target: DDR2 (Homo sapiens, UniProt Q16832); test: biochemical; settings: read-out: %Ctrl @ 2000nM
[13] = target: DMPK2 (Homo sapiens, UniProt Q6DT37); test: biochemical; settings: read-out: %Ctrl @ 2000nM
[14] = target: EPHB1 (Homo sapiens, UniProt P54762); test: biochemical; settings: read-out: %Ctrl @ 2000nM
[15] = target: EPHB2 (Homo sapiens, UniProt P29323); test: biochemical; settings: read-out: %Ctrl @ 2000nM
[16] = target: FLT3(D835H) (Homo sapiens, UniProt P36888, D835H); test: biochemical; settings: read-out: %Ctrl @ 2000nM
[17] = target: FLT3(D835Y) (Homo sapiens, UniProt P36888, D835Y); test: biochemical; settings: read-out: %Ctrl @ 2000nM
[18] = target: FLT3(K663Q) (Homo sapiens, UniProt P36888, K663Q); test: biochemical; settings: read-out: %Ctrl @ 2000nM
[19] = target: FLT4 (Homo sapiens, UniProt P35916); test: biochemical; settings: read-out: %Ctrl @ 2000nM
[20] = target: HASPIN (Homo sapiens, UniProt Q8TF76); test: biochemical; settings: read-out: %Ctrl @ 2000nM
[21] = target: IRAK3 (Homo sapiens, UniProt Q9Y616); test: biochemical; settings: read-out: %Ctrl @ 2000nM
[22] = target: ITK (Homo sapiens, UniProt Q08881); test: biochemical; settings: read-out: %Ctrl @ 2000nM
[23] = target: JNK3 (Homo sapiens, UniProt P53779); test: biochemical; settings: read-out: %Ctrl @ 2000nM
[24] = target: KIT(L576P) (Homo sapiens, UniProt P10721, L576P); test: biochemical; settings: read-out: %Ctrl @ 2000nM
[25] = target: MAP3K1 (Homo sapiens, UniProt Q13233); test: biochemical; settings: read-out: %Ctrl @ 2000nM
[26] = target: MAP3K2 (Homo sapiens, UniProt Q9Y2U5); test: biochemical; settings: read-out: %Ctrl @ 2000nM
[27] = target: MAP3K4 (Homo sapiens, UniProt Q9Y6R4); test: biochemical; settings: read-out: %Ctrl @ 2000nM
[28] = target: MAP4K4 (Homo sapiens, UniProt O95819); test: biochemical; settings: read-out: %Ctrl @ 2000nM
[29] = target: MKK7 (Homo sapiens, UniProt O14733); test: biochemical; settings: read-out: %Ctrl @ 2000nM
[30] = target: MLK1 (Homo sapiens, UniProt P80192); test: biochemical; settings: read-out: %Ctrl @ 2000nM
[31] = target: MST4 (Homo sapiens, UniProt Q9P289); test: biochemical; settings: read-out: %Ctrl @ 2000nM
[32] = target: MTOR (Homo sapiens, UniProt P42345); test: biochemical; settings: read-out: %Ctrl @ 2000nM
[33] = target: MYLK4 (Homo sapiens, UniProt Q86YV6); test: biochemical; settings: read-out: %Ctrl @ 2000nM
[34] = target: NIK (Homo sapiens, UniProt Q99558); test: biochemical; settings: read-out: %Ctrl @ 2000nM
[35] = target: PAK6 (Homo sapiens, UniProt Q9NQU5); test: biochemical; settings: read-out: %Ctrl @ 2000nM
[36] = target: PCTK3 (Homo sapiens, UniProt Q07002); test: biochemical; settings: read-out: %Ctrl @ 2000nM
[37] = target: PDPK1 (Homo sapiens, UniProt O15530); test: biochemical; settings: read-out: %Ctrl @ 2000nM
[38] = target: PFTAIRE2 (Homo sapiens, UniProt Q96Q40); test: biochemical; settings: read-out: %Ctrl @ 2000nM
[39] = target: PIK3CA(E545A) (Homo sapiens, UniProt P42336, E545A); test: biochemical; settings: read-out: %Ctrl @ 2000nM
[40] = target: STK35 (Homo sapiens, UniProt Q8TDR2); test: biochemical; settings: read-out: %Ctrl @ 2000nM
[41] = target: TAK1 (Homo sapiens, UniProt O43318); test: biochemical; settings: read-out: %Ctrl @ 2000nM
[42] = target: YANK1 (Homo sapiens, UniProt Q8WU08); test: biochemical; settings: read-out: %Ctrl @ 2000nM
[43] = target: ZAP70 (Homo sapiens, UniProt P43403); test: biochemical; settings: read-out: %Ctrl @ 2000nM

Sequence of PAK6 (Q9NQU5 whole entry): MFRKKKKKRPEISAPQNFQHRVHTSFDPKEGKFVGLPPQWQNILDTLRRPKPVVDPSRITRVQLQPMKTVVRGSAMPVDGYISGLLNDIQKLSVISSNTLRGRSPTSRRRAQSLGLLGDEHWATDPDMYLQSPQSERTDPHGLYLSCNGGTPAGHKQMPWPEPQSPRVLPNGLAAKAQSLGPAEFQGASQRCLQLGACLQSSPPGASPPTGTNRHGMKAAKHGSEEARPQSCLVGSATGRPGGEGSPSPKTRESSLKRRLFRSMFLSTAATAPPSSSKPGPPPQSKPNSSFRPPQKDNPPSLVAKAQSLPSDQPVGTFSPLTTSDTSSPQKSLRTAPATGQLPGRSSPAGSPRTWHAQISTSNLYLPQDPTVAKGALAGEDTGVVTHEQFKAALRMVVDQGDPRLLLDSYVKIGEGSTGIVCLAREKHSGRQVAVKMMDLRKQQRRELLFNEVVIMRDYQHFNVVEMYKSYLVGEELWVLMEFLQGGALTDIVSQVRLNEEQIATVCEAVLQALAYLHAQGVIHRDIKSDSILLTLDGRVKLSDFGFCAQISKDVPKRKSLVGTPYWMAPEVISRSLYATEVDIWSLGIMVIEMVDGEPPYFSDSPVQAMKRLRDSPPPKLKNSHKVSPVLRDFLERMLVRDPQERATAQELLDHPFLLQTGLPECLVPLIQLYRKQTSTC
Sequence of PFTAIRE2 (Q96Q40 whole entry): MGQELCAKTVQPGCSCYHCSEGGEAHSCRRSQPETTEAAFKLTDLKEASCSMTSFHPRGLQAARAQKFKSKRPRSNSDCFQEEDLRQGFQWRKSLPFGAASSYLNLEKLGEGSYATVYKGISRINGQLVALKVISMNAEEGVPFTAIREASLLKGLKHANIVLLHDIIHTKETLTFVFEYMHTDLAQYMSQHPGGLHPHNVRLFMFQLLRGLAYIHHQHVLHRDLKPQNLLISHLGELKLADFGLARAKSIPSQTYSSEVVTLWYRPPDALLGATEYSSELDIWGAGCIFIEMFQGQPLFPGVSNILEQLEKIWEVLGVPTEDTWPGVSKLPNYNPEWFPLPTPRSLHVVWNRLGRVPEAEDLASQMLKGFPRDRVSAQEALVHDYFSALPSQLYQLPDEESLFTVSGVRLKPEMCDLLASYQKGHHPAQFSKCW
Sequence of PCTK3 (Q07002 whole entry): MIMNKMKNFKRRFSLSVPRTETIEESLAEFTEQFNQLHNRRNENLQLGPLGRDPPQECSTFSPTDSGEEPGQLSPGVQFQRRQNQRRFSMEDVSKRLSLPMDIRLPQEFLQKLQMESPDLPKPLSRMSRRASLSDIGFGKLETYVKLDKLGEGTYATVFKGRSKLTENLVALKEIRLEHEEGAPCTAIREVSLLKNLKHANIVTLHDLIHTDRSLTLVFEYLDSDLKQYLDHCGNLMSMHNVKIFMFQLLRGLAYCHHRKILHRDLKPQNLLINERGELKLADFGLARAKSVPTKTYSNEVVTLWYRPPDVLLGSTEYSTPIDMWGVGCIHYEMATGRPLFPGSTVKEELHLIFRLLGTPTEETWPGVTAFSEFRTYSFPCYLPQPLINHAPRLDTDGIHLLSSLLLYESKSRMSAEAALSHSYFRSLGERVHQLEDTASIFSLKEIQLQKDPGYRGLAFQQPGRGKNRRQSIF
Sequence of PIK3CA(E545A) (P42336 whole entry E545A): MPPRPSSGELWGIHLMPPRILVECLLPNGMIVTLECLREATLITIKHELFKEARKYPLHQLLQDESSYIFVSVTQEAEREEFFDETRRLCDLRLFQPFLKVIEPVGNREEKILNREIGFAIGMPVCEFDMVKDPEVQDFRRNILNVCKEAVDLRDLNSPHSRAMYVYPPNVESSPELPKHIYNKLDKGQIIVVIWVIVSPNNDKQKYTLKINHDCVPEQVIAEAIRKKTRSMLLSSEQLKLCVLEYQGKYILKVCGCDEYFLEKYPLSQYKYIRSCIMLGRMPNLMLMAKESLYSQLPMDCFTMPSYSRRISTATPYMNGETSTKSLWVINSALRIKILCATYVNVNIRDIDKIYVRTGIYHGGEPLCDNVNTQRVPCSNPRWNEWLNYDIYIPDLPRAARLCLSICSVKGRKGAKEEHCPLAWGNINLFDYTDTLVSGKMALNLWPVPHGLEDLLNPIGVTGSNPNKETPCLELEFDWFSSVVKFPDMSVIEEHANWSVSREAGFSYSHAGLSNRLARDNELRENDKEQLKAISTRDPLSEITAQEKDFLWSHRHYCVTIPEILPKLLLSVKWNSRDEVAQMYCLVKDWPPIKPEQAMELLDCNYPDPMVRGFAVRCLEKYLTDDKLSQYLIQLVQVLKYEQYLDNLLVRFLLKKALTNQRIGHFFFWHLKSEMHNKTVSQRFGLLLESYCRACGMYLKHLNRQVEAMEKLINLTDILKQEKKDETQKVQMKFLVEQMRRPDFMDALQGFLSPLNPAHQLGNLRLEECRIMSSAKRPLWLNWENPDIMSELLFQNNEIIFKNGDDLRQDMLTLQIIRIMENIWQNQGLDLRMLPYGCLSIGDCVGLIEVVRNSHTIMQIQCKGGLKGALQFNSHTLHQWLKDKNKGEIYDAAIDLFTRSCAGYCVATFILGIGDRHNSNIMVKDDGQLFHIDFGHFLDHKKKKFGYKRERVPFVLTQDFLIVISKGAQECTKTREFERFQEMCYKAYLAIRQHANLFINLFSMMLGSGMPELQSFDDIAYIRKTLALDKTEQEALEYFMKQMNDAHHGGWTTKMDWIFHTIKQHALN
Sequence of CDK4 (P11802 whole entry): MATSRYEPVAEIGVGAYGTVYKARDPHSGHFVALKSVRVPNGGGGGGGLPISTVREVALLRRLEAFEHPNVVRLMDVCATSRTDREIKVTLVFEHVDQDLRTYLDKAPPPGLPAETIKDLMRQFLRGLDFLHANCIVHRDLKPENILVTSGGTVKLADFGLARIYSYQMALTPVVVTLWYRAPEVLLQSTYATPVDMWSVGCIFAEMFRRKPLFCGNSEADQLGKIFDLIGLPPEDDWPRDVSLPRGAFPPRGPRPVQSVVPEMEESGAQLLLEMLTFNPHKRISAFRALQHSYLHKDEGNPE
Sequence of MAP3K1 (Q13233 whole entry): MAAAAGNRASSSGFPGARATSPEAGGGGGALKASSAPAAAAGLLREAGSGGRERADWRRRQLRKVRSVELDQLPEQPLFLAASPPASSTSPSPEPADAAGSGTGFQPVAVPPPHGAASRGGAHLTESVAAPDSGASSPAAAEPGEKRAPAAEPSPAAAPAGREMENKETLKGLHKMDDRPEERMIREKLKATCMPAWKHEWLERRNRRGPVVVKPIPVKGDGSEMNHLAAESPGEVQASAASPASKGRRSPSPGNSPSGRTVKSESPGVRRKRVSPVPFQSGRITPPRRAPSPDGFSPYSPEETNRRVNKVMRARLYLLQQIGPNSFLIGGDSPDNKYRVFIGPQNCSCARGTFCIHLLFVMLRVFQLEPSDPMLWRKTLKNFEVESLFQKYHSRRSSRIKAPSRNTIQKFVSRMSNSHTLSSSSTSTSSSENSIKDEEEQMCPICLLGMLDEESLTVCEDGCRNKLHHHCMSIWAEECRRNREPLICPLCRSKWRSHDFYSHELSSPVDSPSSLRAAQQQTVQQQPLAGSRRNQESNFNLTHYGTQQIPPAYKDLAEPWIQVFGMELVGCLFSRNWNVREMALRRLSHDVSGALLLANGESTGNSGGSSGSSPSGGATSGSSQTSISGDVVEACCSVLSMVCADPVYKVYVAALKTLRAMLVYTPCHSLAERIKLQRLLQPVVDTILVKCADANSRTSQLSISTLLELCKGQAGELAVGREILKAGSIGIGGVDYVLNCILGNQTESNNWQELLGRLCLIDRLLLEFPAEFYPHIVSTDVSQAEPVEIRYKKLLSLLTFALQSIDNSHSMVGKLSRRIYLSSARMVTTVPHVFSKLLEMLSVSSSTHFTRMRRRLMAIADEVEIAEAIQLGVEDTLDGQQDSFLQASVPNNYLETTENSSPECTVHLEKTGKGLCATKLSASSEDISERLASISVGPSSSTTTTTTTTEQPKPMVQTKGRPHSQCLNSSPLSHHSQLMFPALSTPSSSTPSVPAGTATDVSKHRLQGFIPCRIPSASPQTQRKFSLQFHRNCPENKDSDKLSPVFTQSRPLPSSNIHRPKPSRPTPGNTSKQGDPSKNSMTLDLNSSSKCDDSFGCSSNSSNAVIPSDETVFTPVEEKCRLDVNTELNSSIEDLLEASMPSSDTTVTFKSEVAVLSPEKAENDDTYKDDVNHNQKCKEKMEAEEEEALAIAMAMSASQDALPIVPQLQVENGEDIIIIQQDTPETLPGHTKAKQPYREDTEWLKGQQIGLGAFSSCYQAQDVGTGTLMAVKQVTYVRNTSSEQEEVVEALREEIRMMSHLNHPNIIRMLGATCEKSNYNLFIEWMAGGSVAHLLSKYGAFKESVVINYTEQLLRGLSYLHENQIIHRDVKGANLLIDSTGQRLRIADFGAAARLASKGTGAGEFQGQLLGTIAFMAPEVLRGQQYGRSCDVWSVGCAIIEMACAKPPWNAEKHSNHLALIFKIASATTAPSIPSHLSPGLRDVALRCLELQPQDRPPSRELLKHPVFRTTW
Sequence of CAMK2D (Q13557 whole entry): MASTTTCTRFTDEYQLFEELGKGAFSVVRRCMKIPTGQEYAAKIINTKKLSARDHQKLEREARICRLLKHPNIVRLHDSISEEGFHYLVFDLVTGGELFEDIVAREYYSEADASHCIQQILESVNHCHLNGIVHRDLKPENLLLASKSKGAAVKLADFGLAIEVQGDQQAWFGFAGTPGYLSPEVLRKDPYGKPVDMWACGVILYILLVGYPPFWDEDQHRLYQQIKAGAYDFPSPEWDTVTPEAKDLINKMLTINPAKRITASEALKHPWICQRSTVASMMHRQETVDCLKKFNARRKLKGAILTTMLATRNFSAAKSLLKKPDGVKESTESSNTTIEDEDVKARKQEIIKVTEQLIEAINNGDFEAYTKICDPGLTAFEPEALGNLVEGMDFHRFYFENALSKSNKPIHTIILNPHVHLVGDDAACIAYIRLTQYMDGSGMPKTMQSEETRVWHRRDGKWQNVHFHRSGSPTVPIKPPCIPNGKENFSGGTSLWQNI

`CC(C)COC(=O)c1[nH]c2ccc(F)cc2c1-c1cn(CC2CCN(CCNS(=O)(=O)c3ccc(CC(C)C)cc3)CC2)nn1` [AB668, isobutyl 5-fluoro-3-(1-((1-(2-((4-isobutylphenyl)sulfonamido)ethyl)piperidin-4-yl)methyl)-1H-1,2,3-triazol-4-yl)-1H-indole-2-carboxylate] was tested, and the cytotoxicity [1] was “no cytotoxicity”, the remaining activity at 2 µM [2] was 67% and the remaining activity at 2 µM [3] was 79%. The remaining activity at 2 µM [4] was 92%, the remaining activity at 2 µM [5] was 99% and the remaining activity at 2 µM [6] was 100%. The remaining activity at 2 µM [7] was 89%, the remaining activity at 2 µM [8] was 100% and the remaining activity at 2 µM [9] was 98%. The remaining activity at 2 µM [10] was 79%, the remaining activity at 2 µM [11] was 97% and the remaining activity at 2 µM [12] was 94%. For the same molecule, the remaining activity at 2 µM [13] was 85%, the remaining activity at 2 µM [14] was 100% and the remaining activity at 2 µM [15] was 98%. The remaining activity at 2 µM [16] was 89%, the remaining activity at 2 µM [17] was 79% and the remaining activity at 2 µM [18] was 96%. For the same molecule, the remaining activity at 2 µM [19] was 98%, the remaining activity at 2 µM [20] was 100% and the remaining activity at 2 µM [21] was 86%. The remaining activity at 2 µM [22] was 93%, the remaining activity at 2 µM [23] was 92% and the remaining activity at 2 µM [24] was 91%. It also gave a remaining activity at 2 µM [25] of 91%, a remaining activity at 2 µM [26] of 93% and a remaining activity at 2 µM [27] of 90%. The remaining activity at 2 µM [28] was 96%, the remaining activity at 2 µM [29] was 82% and the remaining activity at 2 µM [30] was 96%. For the same molecule, the remaining activity at 2 µM [31] was 92%, the remaining activity at 2 µM [32] was 92% and the remaining activity at 2 µM [33] was 100%. For the same molecule, the remaining activity at 2 µM [34] was 72%, the remaining activity at 2 µM [35] was 90% and the remaining activity at 2 µM [36] was 91%. The remaining activity at 2 µM [37] was 98%, the remaining activity at 2 µM [38] was 88% and the remaining activity at 2 µM [39] was 100%. For the same molecule, the remaining activity at 2 µM [40] was 89%, the remaining activity at 2 µM [41] was 84% and the remaining activity at 2 µM [42] was 78%. The remaining activity at 2 µM [43] was 76%.
